IC50 data for 37 compounds are collected here from patent US11174245B2, “Benzimidazole compounds and derivatives as EGFR inhibitors” (Boehringer Ingelheim International GmbH, priority 2018, dated 2021).

Molecules are shown by their SMILES. Where two headings read alike, the source gives them in different places.

In test [1] the target is EGFR (mutated) 695-1022, T790M, C797S, L858R (Homo sapiens (Human), UniProt P00533, C797S/L858R/T790M). Nature of the test: Biochemical EGFR inhibition assay (TR-FRET, poly-GT substrate), EGFR T790M C797S L858R. The protocol: (§1) Biochemical EGFR Inhibition Assays
Sequence of EGFR (mutated) 695-1022, T790M, C797S, L858R (P00533 695-1022 T790M/C797S/L858R): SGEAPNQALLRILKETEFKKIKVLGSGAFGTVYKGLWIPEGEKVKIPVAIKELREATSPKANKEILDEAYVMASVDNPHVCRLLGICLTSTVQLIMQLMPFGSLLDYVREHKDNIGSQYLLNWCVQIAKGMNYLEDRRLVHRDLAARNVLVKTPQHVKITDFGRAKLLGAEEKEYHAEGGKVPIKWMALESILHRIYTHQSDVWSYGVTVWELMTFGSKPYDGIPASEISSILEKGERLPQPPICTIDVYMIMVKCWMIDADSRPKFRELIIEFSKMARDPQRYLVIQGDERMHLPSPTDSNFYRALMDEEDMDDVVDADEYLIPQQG
(§2) Initially, the inhibitory effect of compounds according to the invention is measured in biochemical assays which measure the phosphorylation activity of EGFR enzyme forms on poly-GT substrate in the presence of different concentrations of ATP (5 μM and 100 μM final assay concentration).
(§3) The following enzyme forms of EGFR are representative examples that can be used in these assays at the given concentrations:
(§4) For the chosen highest assay concentration of 100 μM, 150 nL of compound solution is transferred from a 10 mM DMSO compound stock solution. A series of eleven fivefold dilutions per compound is transferred to the assay plate, compound dilutions are tested in duplicates. DMSO is added as backfill to a total volume of 150 nL. The assay runs on a fully automated robotic system.
(§5) These biochemical EGFR enzyme form compound dose-response assays quantify the kinase activity via phosphorylation of a tagged poly-GT substrate. The results of the assay are provided as IC50 values.

The next test addresses EGFR wt (Homo sapiens (Human), UniProt P00533). Description: Biochemical EGFR inhibition assay (TR-FRET, poly-GT substrate), EGFR wt. The method, then: as §1, §2, §3, §4, §5
In test [2] the target is EGFR del19 T790M C797S protein in Ba/F3 cells (Homo sapiens, UniProt P00533, C797S/DEL746-750/T790M). Description: pEGFR assay (AlphaScreen Surefire, EGFR Tyr1068 phosphorylation). The class given is cell-based. In outline:
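Transduced Ba/F3 cells, puromycin-selected and grown IL-3 independent, were treated with compound at 60.000 cells/well for 4 h at 37° C. Lysis followed for 20 min at room temperature, and Tyr1068 phospho-EGFR in lysate was detected after 2 h dark incubation. Results are IC50 values.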

The mark [3] stands for this setting: read-out: LR_TM_CS (5 μM ATP) IC50, 5 μM ATP.
The mark [4] stands for this setting: read-out: wt (5 μM ATP) IC50, 5 μM ATP.
[5] abbreviates: read-out: LR_TM_CS (100 μM ATP) IC50, 100 μM ATP.
[6] abbreviates: read-out: wt (100 μM ATP) IC50, 100 μM ATP.

Sequence of EGFR del19 T790M C797S protein in Ba/F3 cells (P00533 with tags, fused parts or gaps C797S/DEL746-750/T790M limits assumed): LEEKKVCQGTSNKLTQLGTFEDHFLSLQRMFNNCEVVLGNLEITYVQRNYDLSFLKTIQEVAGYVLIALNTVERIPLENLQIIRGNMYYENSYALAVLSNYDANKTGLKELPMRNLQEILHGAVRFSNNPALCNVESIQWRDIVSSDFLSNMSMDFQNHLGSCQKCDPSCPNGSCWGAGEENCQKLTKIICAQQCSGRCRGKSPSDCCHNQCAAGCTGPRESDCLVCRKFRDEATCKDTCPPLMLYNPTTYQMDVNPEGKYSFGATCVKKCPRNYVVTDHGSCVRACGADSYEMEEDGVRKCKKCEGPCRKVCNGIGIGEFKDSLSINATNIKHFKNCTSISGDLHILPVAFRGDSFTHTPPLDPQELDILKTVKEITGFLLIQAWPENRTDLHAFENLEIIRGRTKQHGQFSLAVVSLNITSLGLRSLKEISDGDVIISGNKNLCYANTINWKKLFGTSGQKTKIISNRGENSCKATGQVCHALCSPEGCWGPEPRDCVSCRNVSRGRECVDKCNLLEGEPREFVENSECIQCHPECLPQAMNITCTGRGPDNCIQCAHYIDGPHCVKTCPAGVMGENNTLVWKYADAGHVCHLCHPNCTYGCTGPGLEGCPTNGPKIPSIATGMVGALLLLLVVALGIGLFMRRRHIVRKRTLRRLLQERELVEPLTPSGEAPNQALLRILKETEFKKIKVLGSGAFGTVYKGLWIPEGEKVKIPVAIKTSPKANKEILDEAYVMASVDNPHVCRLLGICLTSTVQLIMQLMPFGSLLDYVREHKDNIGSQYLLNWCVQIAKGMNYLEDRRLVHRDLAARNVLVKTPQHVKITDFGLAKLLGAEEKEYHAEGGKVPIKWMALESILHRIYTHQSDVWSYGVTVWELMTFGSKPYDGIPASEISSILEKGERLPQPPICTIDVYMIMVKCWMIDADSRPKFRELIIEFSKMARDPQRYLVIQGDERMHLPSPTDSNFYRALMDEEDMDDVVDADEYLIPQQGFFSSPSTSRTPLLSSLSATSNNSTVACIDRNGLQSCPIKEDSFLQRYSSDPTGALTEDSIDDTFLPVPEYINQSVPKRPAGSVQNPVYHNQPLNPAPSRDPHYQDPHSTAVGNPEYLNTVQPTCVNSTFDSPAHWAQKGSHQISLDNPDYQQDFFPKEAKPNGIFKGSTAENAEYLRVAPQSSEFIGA
Sequence of EGFR wt (P00533 25-1210): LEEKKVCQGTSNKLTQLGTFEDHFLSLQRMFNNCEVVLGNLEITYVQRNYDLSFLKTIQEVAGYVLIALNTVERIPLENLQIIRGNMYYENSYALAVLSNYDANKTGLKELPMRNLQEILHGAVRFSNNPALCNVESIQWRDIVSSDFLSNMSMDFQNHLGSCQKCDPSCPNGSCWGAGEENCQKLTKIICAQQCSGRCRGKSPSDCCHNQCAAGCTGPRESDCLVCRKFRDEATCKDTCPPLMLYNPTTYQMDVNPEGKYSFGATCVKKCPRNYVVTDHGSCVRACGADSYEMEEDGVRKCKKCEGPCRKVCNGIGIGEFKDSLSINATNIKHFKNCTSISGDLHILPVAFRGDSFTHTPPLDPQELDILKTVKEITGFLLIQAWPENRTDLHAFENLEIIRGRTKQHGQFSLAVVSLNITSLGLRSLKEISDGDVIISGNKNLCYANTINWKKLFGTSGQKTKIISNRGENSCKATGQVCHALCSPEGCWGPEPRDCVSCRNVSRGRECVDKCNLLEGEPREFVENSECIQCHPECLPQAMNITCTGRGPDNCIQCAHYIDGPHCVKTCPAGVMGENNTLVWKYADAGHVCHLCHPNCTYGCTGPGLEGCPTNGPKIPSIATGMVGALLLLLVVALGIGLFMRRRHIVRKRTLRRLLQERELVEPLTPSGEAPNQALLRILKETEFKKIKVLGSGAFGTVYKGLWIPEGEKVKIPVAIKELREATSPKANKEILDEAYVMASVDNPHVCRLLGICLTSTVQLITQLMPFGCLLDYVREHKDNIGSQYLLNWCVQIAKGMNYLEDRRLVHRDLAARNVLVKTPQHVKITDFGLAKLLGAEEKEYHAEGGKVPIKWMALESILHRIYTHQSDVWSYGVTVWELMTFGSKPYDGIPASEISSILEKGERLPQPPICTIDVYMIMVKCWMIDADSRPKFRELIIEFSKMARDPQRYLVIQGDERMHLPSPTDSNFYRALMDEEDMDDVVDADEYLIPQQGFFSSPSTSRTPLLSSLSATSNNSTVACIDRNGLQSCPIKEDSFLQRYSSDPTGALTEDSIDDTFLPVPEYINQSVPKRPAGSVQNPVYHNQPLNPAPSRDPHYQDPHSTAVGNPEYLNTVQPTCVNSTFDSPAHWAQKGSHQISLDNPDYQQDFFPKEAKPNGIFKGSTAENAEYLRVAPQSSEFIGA

Take `O=C(/N=c1\[nH]c2ccccc2n1[C@H]1CC[C@@H](O)CC1)c1ccnc(-c2cccn3ncnc23)c1` [I-179]: the half-inhibitory concentration (IC50) in test [1] (setting [3]) turned out to be 33.8 nM; on EGFR wt (setting [4]), 3600 nM; in test [2], 12 nM.
The corresponding values for `Cc1cc(C(=O)/N=c2\[nH]c3cc(CN4CCOCC4)ccc3n2[C@H]2CC[C@@H](O)CC2)cc(-c2cnn(C)c2)n1` [I-197] are 2.7 nM, 5010 nM and 7 nM.
With `Cc1cc(C(=O)/N=c2\[nH]c3ccccc3n2C2CCCS(=O)(=O)C2)cc(-c2cnn(C)c2)n1` (stereo not drawn) [I-217], the IC50 was 33 nM in test [1] (setting [3]), above 100000 nM at EGFR wt (setting [4]) and 75 nM in test [2].
In the case of `Cn1cc(-c2cc(C(=O)/N=c3\[nH]c4cc(C5CCN(C6CC6)CC5)ccc4n3CC(C)(C)O)ccn2)cn1` [I-042], the IC50 in test [1] (setting [5]) was 24.3 nM; on EGFR wt (setting [6]) it was 14600 nM; in test [2], 3 nM.
With `Cc1cc(C(=O)/N=c2\[nH]c3cc(CN4CCOCC4)ccc3n2[C@H]2CCC[C@H](O)C2)cc(-c2cnn(C)c2)n1` [I-209], the IC50 came to 8.1 nM in test [1] (setting [3]), 5800 nM on EGFR wt (setting [4]) and 14 nM in test [2].
With `O=C(/N=c1\[nH]c2ccccc2n1[C@H]1CC[C@@H](O)CC1)c1ccnc(-c2ccccc2)c1` [I-107], the IC50 was 1.8 nM in test [1] (setting [3]); 45.7 nM in test [1] (setting [5]); 336 nM on EGFR wt (setting [4]); above 100000 nM at EGFR wt (setting [6]); 4 nM in test [2].
As for `Cn1cc(-c2cc(C(=O)/N=c3\[nH]c4ccccc4n3[C@H]3CC[C@@H](O)CC3)cc(CF)n2)cn1` [I-216], the IC50 in test [1] (setting [3]) stood at 8.1 nM; on EGFR wt (setting [4]), 2670 nM; in test [2] it was 17 nM.
The corresponding values for `CC(=O)N1CCC(c2ccc3c(c2)[nH]/c(=N\C(=O)c2cc(C#N)nc(-c4cnn(C)c4)c2)n3[C@H]2CC[C@@H](O)CC2)CC1` [I-202] are 0.9 nM, 173 nM and 5 nM.
`COc1ccccc1-c1cc(C(=O)/N=c2\[nH]c3ccccc3n2[C@@H]2CC[C@H](O)[C@@H](O)C2)ccn1` [I-198]: the IC50 in test [1] (setting [3]) stood at 7.7 nM; at EGFR wt (setting [4]), 77.1 nM; in test [2], 18 nM.
Take `COc1ccccc1-c1cc(C(=O)/N=c2\[nH]c3ccccc3n2[C@H]2CCC[C@@H](O)C2)ccn1` [I-118]: the IC50 stood at 0.7 nM in test [1] (setting [3]), 34.5 nM on EGFR wt (setting [4]) and 3 nM in test [2].
As for `O=C(/N=c1\[nH]c2ccccc2n1[C@H]1CC[C@@H](O)CC1)c1ccnc(-c2cnn3cccnc23)c1` [I-115], the concentration for half-maximal inhibition (IC50) in test [1] (setting [5]) is 5.8 nM; at EGFR wt (setting [6]) it was 2420 nM; in test [2] it was 1 nM.
For the compound `O=C(/N=c1\[nH]c2ccccc2n1[C@H]1CC[C@@H](O)CC1)c1ccnc(-c2ccc(F)cc2F)c1` [I-180], the half-inhibitory concentration (IC50) in test [1] (setting [3]) worked out at 4.8 nM; at EGFR wt (setting [4]), 302 nM; in test [2] it was 12 nM.
For the compound `CNc1cc(C(=O)/N=c2\[nH]c3ccccc3n2[C@H]2CC[C@@H](O)CC2)cc(-c2cnn(C)c2)n1` [I-215], the 50% inhibitory concentration (IC50) in test [1] (setting [3]) stood at 4.9 nM; on EGFR wt (setting [4]), 8380 nM; in test [2], 14 nM.
As for `Cn1cc(-c2cc(C(=O)/N=c3\[nH]c4cc(CC#N)ccc4n3CC(C)(C)O)ccn2)cn1` [I-199], the IC50 came to 6.8 nM in test [1] (setting [3]), 1520 nM at EGFR wt (setting [4]) and 15 nM in test [2].
For the compound `Cc1cc(C(=O)/N=c2\[nH]c3ccc(CN4CCN(C)CC4)cc3n2CC(C)(C)O)cc(-c2cnn(C)c2)n1` [I-214], the IC50 in test [1] (setting [3]) is 10.1 nM; at EGFR wt (setting [4]) it was 9660 nM; in test [2], 38 nM.
As for `COc1c(F)cccc1-c1cc(C(=O)/N=c2\[nH]c3ccccc3n2[C@H]2CC[C@@H](O)CC2)ccn1` [I-175], the IC50 in test [1] (setting [3]) is 13.6 nM; at EGFR wt (setting [4]), 557 nM; in test [2], 10 nM.
In the case of `CN(C)Cc1cccc(-c2cc(C(=O)/N=c3\[nH]c4ccccc4n3[C@H]3CC[C@@H](O)CC3)ccn2)c1` [I-114], the IC50 in test [1] (setting [5]) was 18.6 nM; on EGFR wt (setting [6]) it was 6650 nM; in test [2] it was 2 nM.
For the compound `Cn1cc(-c2cc(C(=O)/N=c3\[nH]c4ccccc4n3[C@@H]3CCC[C@H](O)C3)ccn2)cn1` [I-128], the IC50 in test [1] (setting [3]) is 4 nM; at EGFR wt (setting [4]), 1130 nM; in test [2], 7 nM.
Taken in the same sequence, the figures for `O=C(/N=c1\[nH]c2ccccc2n1[C@H]1CC[C@@H](O)CC1)c1ccnc(-c2ccccc2F)c1` [I-141] were 2 nM, 312 nM and 2 nM.
On to `Cc1ccc2c(c1)[nH]/c(=N\C(=O)c1ccnc(-c3cnn4cccnc34)c1)n2[C@H]1CC[C@@H](O)CC1` [I-110], for which the IC50 turned out to be 3.7 nM in test [1] (setting [5]), 4420 nM at EGFR wt (setting [6]) and 1 nM in test [2].
Turning to `CN(C)Cc1cccc(-c2cc(C(=O)/N=c3\[nH]c4ccccc4n3CC(C)(C)O)ccn2)c1` [I-102], the IC50 in test [1] (setting [3]) is 1 nM; in test [1] (setting [5]), 13.7 nM; on EGFR wt (setting [4]), 213 nM; at EGFR wt (setting [6]) it was 6060 nM; in test [2], 2 nM.
As for `COc1cc(F)ccc1-c1cc(C(=O)/N=c2\[nH]c3ccccc3n2[C@H]2CC[C@@H](O)CC2)ccn1` [I-169], the IC50 amounted to 2.8 nM in test [1] (setting [3]), 81.6 nM on EGFR wt (setting [4]) and 11 nM in test [2].
As to `CC(C)(O)Cn1/c(=N/C(=O)c2ccnc(-c3cccnc3)c2)[nH]c2cc(CC(=O)N3CCCCC3)ccc21` [I-130], the half-inhibitory concentration (IC50) in test [1] (setting [5]) was 178 nM; at EGFR wt (setting [6]) it was above 100000 nM; in test [2], 5 nM.
Take `CC(C)(O)Cn1/c(=N/C(=O)c2ccnc(-c3cccn4cnnc34)c2)[nH]c2ccccc21` [I-91]: the results for the IC50 (in test [1] (setting [3]); at EGFR wt (setting [4]); in test [2]) were 61.1 nM, 14700 nM and 16 nM, respectively.
In the case of `Cn1cc(-c2cc(C(=O)/N=c3\[nH]c4ccccc4n3[C@H]3CC[C@@H](O)CC3)cc(N)n2)cn1` [I-211], the IC50 in test [1] (setting [3]) was determined as 0.3 nM; on EGFR wt (setting [4]) it was 249 nM; in test [2], 1 nM.
As to `Cn1cc(-c2cc(C(=O)/N=c3\[nH]c4ccccc4n3[C@H]3CCC[C@H](O)C3)ccn2)cn1` [I-116], the IC50 in test [1] (setting [3]) turned out to be 0.7 nM; on EGFR wt (setting [4]), 104 nM; in test [2], 1 nM.
For the compound `O=C(/N=c1\[nH]c2ccccc2n1[C@H]1CC[C@@H](O)CC1)c1ccnc(-c2ccncc2)c1` [I-176], the IC50 was 4 nM in test [1] (setting [3]), 293 nM at EGFR wt (setting [4]) and 11 nM in test [2].
Consider `O=C(/N=c1\[nH]c2ccccc2n1[C@H]1CC[C@@H](O)CC1)c1ccnc(-c2coc3cccnc23)c1` [I-156], for which the IC50 in test [1] (setting [3]) was found to be 13.3 nM; at EGFR wt (setting [4]), 3150 nM; in test [2], 5 nM.
Regarding `Cc1cc(C(=O)/N=c2\[nH]c3ccccc3n2[C@@H]2C[C@H](O)C[C@H](O)C2)cc(-c2cnn(C)c2)n1` [I-206], the IC50 was 17.7 nM in test [1] (setting [3]), 12900 nM at EGFR wt (setting [4]) and 37 nM in test [2].
For `CC(=O)N1CCC(c2ccc3c(c2)[nH]/c(=N\C(=O)c2cc(C)nc(-c4cnn(C)c4)c2)n3[C@H]2CC[C@@H](O)CC2)CC1` [I-205], the IC50 in test [1] (setting [3]) was found to be 3.6 nM; on EGFR wt (setting [4]), 1480 nM; in test [2], 8 nM.
The corresponding values for `Cn1cc(-c2cc(C(=O)/N=c3\[nH]c4cc(CN5CCOCC5)ccc4n3[C@H]3CC[C@@H](O)CC3)cc(F)n2)cn1` [I-135] are 0.8 nM, 225 nM and 2 nM.
Taken in the same sequence, the figures for `COc1ccccc1-c1cc(C(=O)/N=c2\[nH]c3ccccc3n2[C@H]2CC[C@H](O)[C@H](O)C2)ccn1` [I-149] were 8.5 nM, 148 nM and 4 nM.
The corresponding values for `Cn1cc(-c2cc(C(=O)/N=c3\[nH]c4ccccc4n3[C@H]3CCC[C@@H](O)C3)ccn2)cn1` [I-112] are 3.1 nM, 777 nM and 13 nM.
Consider `COCCCNc1ccc2c(c1)[nH]/c(=N\C(=O)c1ccnc(-c3cccnc3)c1)n2CC(C)(C)O` [I-78], for which the IC50 in test [1] (setting [5]) stood at 95.2 nM; on EGFR wt (setting [6]), 21100 nM; in test [2], 5 nM.
On to `COc1ccccc1-c1cc(C(=O)/N=c2\[nH]c3cc(C4CCN(C(C)=O)C4)ccc3n2CC(C)(C)O)ccn1` (stereo not drawn) [I-158], for which the figures for the IC50 (in test [1] (setting [3]); at EGFR wt (setting [4]); in test [2]) were 1.5 nM, 56.3 nM and 6 nM, respectively.
As for `O=C(/N=c1\[nH]c2ccccc2n1[C@H]1CC[C@@H](O)CC1)c1ccnc(-c2cnn(C(F)F)c2)c1` [I-201], the concentration for half-maximal inhibition (IC50) in test [1] (setting [3]) was 1.2 nM; on EGFR wt (setting [4]), 231 nM; in test [2], 2 nM.
Turning to `CC(C)(O)Cn1/c(=N/C(=O)c2ccnc(-c3ccccc3)c2)[nH]c2ccccc21` [I-064], the IC50 is 13.1 nM in test [1] (setting [3]); 267 nM in test [1] (setting [5]); above 4000 nM at EGFR wt (setting [4]); above 100000 nM on EGFR wt (setting [6]); 9 nM in test [2].
